Article PMC6198280, “Chemical Instability and Promiscuity of Arylmethylidenepyrazolinone-Based MDMX Inhibitors” (ACS Chemical Biology, 2018)

Molecular target: T1, MDMX (Homo sapiens, UniProt O15151)
T1 construct: gene MDM4
T1 sequence (O15151 1-120): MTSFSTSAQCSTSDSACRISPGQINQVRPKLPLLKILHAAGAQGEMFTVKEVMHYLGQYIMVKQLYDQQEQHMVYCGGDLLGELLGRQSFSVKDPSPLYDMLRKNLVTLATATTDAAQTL
Test: ITC; MALDI-TOF MS of covalent adducts, no reducing agent
Assay type: binding

CCOc1cc(/C=C2\C(=O)N(c3ccccc3)N=C2C)cc(Cl)c1OCC(=O)OC [compound 1, SJ-172550]
Kd: > 13 µM
